Laboratory results published in patent US20230331803A1, “CO-AGONISTS OF THE GLP-1 AND AMYLIN RECEPTORS” (priority 2020, published 2023).
Like-named read-outs stand apart in the source and are kept apart here. Starred links: 1 amine or outer side, 2 acyl side, 3 side chain; linkers in the order of their positions; H or OH if unused. Non-standard residues stand in square brackets, D forms with d. Groups on a side chain read outwards from the residue. *: point of attachment. Decanoyl(10-(4-HOOC-PhO)) = O=C(O)c1ccc(OCCCCCCCCCC(=O)*)cc1; C20 diacid = O=C(O)CCCCCCCCCCCCCCCCCCC(=O)*; C18 diacid = O=C(O)CCCCCCCCCCCCCCCCC(=O)*; C16 diacid = O=C(O)CCCCCCCCCCCCCCC(=O)*; γGlu = O=C(O)[C@H](CCC(=O)[*:2])N[*:1]; C14 diacid = O=C(O)CCCCCCCCCCCCC(=O)*; εLys = N[C@@H](CCCCN[*:1])C(=O)[*:2]; Trx = NC[C@H]1CC[C@H](C(=O)O)CC1; AEEA = NCCOCCOCC(=O)O; Aib = CC(C)(N)C(=O)O

What was measured:
human GLP-1 receptor = biological target: T1, human GLP-1 receptor (Homo sapiens, UniProt P43220); assay: Human GLP-1 receptor in vitro potency assay (CRE-luciferase reporter, BHK cells); type: cell-based
T1 construct: expressed in transfected cells; host or cells: BHK (Baby Hamster Kidney) cells, clone BHK 467-12A KZ-10, stably transfected, with CRE-luciferase reporter
Method: It is thus possible to measure GLP-1 receptor activity using a CRE-luciferase reporter gene introduced into Baby Hamster Kidney (BHK) cells co-expressing the GLP-1 receptor.
Cells were aliquoted and stored at -180° C. until use.
Plates were sealed and incubated at room temperature with gentle shaking for 30 minutes while protected from light. Luminescence was detected on a luminescence plate reader e.g. a Synergy 2 (BioTek).

[1] = biological target: T2, human amylin receptor (hAmyR3) (Homo sapiens, UniProt O60896+P30988); assay: Human amylin receptor in vitro potency assay (CRE-luciferase reporter, BHK cells); type: cell-based;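 note: BHK cells expressing human calcitonin receptor plus RAMP3 (amylin-3 receptor) with a CRE-luciferase reporter, agonist activity read as luminescence from cAMP-driven transcription, 7-point serial dilutions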
T2 construct: host or cells: BHK cells (Hollex-1 line: human calcitonin receptor (a) + CRE-Luc), further transfected with human RAMP3

[2] = Table 4a, BHK cells expressing human GLP-1R, CRE-Luc, 3 hours, read-out: Human GLP-1R potency [EC50 (pM)]
[3] = Table 4a, BHK hAmyR3/CRE-Luc cells, 3 hours, read-out: Human AmyR3 potency [EC50 (pM)]

T1 sequence (P43220 24-463): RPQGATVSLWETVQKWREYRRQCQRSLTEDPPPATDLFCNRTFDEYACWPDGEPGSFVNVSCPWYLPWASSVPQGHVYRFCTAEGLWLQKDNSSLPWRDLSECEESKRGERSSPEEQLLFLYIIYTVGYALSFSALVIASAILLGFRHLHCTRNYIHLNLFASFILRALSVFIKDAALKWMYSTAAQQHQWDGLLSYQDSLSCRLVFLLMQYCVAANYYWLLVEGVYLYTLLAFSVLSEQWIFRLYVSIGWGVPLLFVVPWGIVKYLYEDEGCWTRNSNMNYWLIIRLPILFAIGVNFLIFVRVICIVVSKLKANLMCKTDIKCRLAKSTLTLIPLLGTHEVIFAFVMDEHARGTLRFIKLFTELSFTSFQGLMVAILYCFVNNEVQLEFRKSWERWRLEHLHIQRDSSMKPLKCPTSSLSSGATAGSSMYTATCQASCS
T2 sequence (P30988 25-474): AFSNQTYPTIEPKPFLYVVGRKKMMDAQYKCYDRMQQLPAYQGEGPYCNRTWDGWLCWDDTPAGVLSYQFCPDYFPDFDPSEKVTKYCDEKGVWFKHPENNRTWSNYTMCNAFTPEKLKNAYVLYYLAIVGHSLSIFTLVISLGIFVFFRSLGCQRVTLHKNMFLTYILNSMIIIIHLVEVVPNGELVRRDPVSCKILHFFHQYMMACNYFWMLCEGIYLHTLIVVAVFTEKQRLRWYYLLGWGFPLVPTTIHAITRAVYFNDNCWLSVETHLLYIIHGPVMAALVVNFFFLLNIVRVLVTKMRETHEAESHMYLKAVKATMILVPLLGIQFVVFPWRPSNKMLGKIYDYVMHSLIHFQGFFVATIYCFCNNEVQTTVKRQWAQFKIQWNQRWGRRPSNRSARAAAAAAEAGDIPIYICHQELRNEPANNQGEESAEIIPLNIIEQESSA
T2 sequence (O60896 24-148): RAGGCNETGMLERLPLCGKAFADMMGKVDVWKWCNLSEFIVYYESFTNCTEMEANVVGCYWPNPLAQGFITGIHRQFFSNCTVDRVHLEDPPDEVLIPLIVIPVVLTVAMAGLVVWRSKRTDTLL

EC50 (human GLP-1 receptor; [2]) [pM] | EC50 [1, 3] [pM] | Molecule | further results
– | – | H-Aib-EGTFTSDVSSYLEEQAAREFIAWLVRGR-K([2-[2-[2-[[2-[2-[2-[[(4S)-4-Carboxy-4-(17-Carboxyheptadecanoylamino)Butanoyl]Amino]Ethoxy]Ethoxy]Acetyl]Amino]Ethoxy]Ethoxy]Acetyl])-GGGGEKCNTATCATQRLAEFLRHSSNNFGPILPPTNVGSNTP-amide [Comparator compound 0672, reference compound] | Ability to agonise the GLP-1 receptor, in words (human GLP-1 receptor; Tables 4a-4c): retained their potencies on the GLP-1 receptor; EC50 (human GLP-1 receptor; read-out: Human GLP-1 R potency [EC50 (pM)], Table 4b, reference and comparator compounds): 2.2 pM; EC50 ([1]; Table 4b, reference and comparator compounds, read-out: Human AmyR3 potency [EC50 (pM)]): 606 pM; Ability to agonise the amylin receptor, in words ([1]; Tables 4a-4c): impaired potency on the amylin receptor
4.1 | 13.3 | H-H[Aib]EGTFTSDVSSYLEEQAAREFIAWLVRGRK([εLys-εLys-γGlu-C18 diacid])GGGGEASELSTAALGRLSAELHELATLPRTETGSGSP-NH2 [Compound 0656] | –
5.9 | 54.8 | H-H[Aib]EGTFTSDVSSYLEGQAAREFIAWLVRGRGQEPK([AEEA-AEEA-γGlu-C18 diacid])GQAPASRLSTEALGRLSAELHELATLPRTETGSGSP-NH2 [Compound 0191] | –
11.9 | 27.3 | H-H[Aib]EGTFTSDVSSYLEEQAARK([γGlu-C18 diacid])FIAWLVRGRGGGGGGGGK([γGlu-C18 diacid])EASELSTAALGRLSAELHELATLPRTETGSGSP-NH2 [Compound 0160] | –
3.1 | 16.2 | HWEGTFTSDVSSYLEEK([AEEA-AEEA-γGlu-C20 diacid])AAREFIEWLVRGRGEASELSTAALGRLSAELHELATLPRTETGSGSP-NH2 [Compound 0473] | –
34.8 | 59.5 | H-HGEGTFTSDVSSYLEEQAARK([AEEA-AEEA-γGlu-C14 diacid])FIEWLVRGK([AEEA-AEEA-γGlu-C14 diacid])GEASELSTAALGRLSAELHELATLPRTETGSGSP-NH2 [Compound 0039] | –
– | – | CC[C@H](C)[C@H](NC(=O)[C@H](Cc1ccccc1)NC(=O)[C@H](CCC(=O)O)NC(=O)[C@H](CCCNC(=N)N)NC(=O)[C@H](C)NC(=O)[C@H](C)NC(=O)[C@H](CCC(N)=O)NC(=O)[C@H](CCC(=O)O)NC(=O)[C@H](CCC(=O)O)NC(=O)[C@H](CC(C)C)NC(=O)[C@H](Cc1ccc(O)cc1)NC(=O)[C@H](CO)NC(=O)[C@H](CO)NC(=O)[C@H](CCCCNC(=O)COCCOCCNC(=O)COCCOCCNC(=O)CC[C@H](NC(=O)CCCCCCCCCCCCCCCCC(=O)O)C(=O)O)NC(=O)[C@H](CC(=O)O)NC(=O)[C@H](CO)NC(=O)[C@@H](NC(=O)[C@H](Cc1ccccc1)NC(=O)[C@@H](NC(=O)CNC(=O)[C@H](CCC(=O)O)NC(=O)[C@H](Cc1c[nH]c2ccccc12)NC(=O)[C@@H](N)Cc1c[nH]cn1)[C@@H](C)O)[C@@H](C)O)C(=O)N[C@@H](CCC(=O)O)C(=O)N[C@@H](Cc1c[nH]c2ccccc12)C(=O)N[C@@H](CC(C)C)C(=O)N[C@H](C(=O)N[C@@H](CCCNC(=N)N)C(=O)NCC(=O)N[C@@H](CCCNC(=N)N)C(=O)NCC(=O)N[C@@H](CCC(=O)O)C(=O)N[C@@H](C)C(=O)N[C@@H](CO)C(=O)N[C@@H](CCC(=O)O)C(=O)N[C@@H](CC(C)C)C(=O)N[C@@H](CO)C(=O)N[C@H](C(=O)N[C@@H](C)C(=O)N[C@@H](C)C(=O)N[C@@H](CC(C)C)C(=O)NCC(=O)N[C@@H](CCCNC(=N)N)C(=O)N[C@@H](CC(C)C)C(=O)N[C@@H](CO)C(=O)N[C@@H](C)C(=O)N[C@@H](CCC(=O)O)C(=O)N[C@@H](CC(C)C)C(=O)N[C@@H](Cc1c[nH]cn1)C(=O)N[C@@H](CCC(=O)O)C(=O)N[C@@H](CC(C)C)C(=O)N[C@@H](C)C(=O)N[C@H](C(=O)N[C@@H](CC(C)C)C(=O)N1CCC[C@H]1C(=O)N[C@@H](CCCNC(=N)N)C(=O)N[C@H](C(=O)N[C@@H](CCC(=O)O)C(=O)N[C@H](C(=O)NCC(=O)N[C@@H](CO)C(=O)NCC(=O)N[C@@H](CO)C(=O)N1CCC[C@H]1C(N)=O)[C@@H](C)O)[C@@H](C)O)[C@@H](C)O)[C@@H](C)O)C(C)C [Compound 0273] | EC50 (human GLP-1 receptor): 24.9 pM; EC50 [1]: 18 pM
2.2 | 22.8 | H-H[Aib]EGTFTSDVSSYLEEQAAREFIAWLVRGRK([AEEA-AEEA-γGlu-C18 diacid])EASELSTAALGRLSAELHELATLPRTETGSGSP-NH2 [Compound 0115] | –
13.7 | 34.3 | H-H[Aib]EGTFTSDVSSYLEK([AEEA-AEEA-γGlu-C16 diacid])QAAREFIAWLVRGRGGGGGASELSTAALGRLSK([AEEA-AEEA-γGlu-C16 diacid])ELHELATLPRTETGSGSP-NH2 [Compound 0294] | –
3.2 | 12.6 | H-H[Aib]EGTFTSDVSSYLEEQAAREFIAWLVRGRK([AEEA-AEEA-AEEA-AEEA-γGlu-C20 diacid])GGGGEASELSTAALGRLSAELHELATLPRTETGSGSP-NH2 [Compound 0663] | –
7.1 | 63.9 | H[Aib]EGTFTSDVSSYLEEQAARK([AEEA-AEEA-γGlu-C18 diacid])FIAWLVRGK([AEEA-AEEA-γGlu-C18 diacid])GGEASELSTAALGRLSAELHELATLPRTETGSGSP-NH2 [Compound 0127] | –
11.9 | 41.8 | H-H[Aib]EGTFTSDK([AEEA-AEEA-γGlu-C16 diacid])SSYLEEQAAREFIAWLVRGRGGGGGEASELSTAALGRLSAELHELK([AEEA-AEEA-γGlu-C16 diacid])TLPRTETGSGSP-NH2 [Compound 0260] | –
8.8 | 35.9 | H-H[Aib]EGTFTSDVSSYLEEQAAREFIEWLVRGRK([AEEA-AEEA-γGlu-Trx-C20 diacid])EAEAEASELSTAALGRLSAELHELATLPRTETGSGSP-NH2 [Compound 0179] | –
17 | 26.4 | H-H[Aib]EGTFTSDVSSYLEEQAARK([AEEA-AEEA-γGlu-C20 diacid])FIEWLVRGASELSTAALGRLSAELHELATLPRTETGSGSP-NH2 [Compound 0581] | –
3 | 14.6 | H-H[Aib]EGTFTSDVSSYLEEQAAREFIAWLVRGRK([AEEA-AEEA-AEEA-AEEA-γGlu-C18 diacid])GGGGEASELSTAALGRLSAELHELATLPRTETGSGSP-NH2 [Compound 0662] | –
36.5 | 31.8 | H-HAEGTFTSDVSK([AEEA-AEEA-γGlu-C16 diacid])YLEEQAVREFIAK([AEEA-AEEA-γGlu-C16 diacid])LVRGRGGGEASELSTAALGRLSAELHELATLPRTETGSGSP-NH2 [Compound 0482] | –
20.7 | 7.7 | H-H[Aib]EGTFTSDVSSYLEGQAAK([AEEA-AEEA-γGlu-C18 diacid])EFIAWLVRGRGGGGEASELSTAALGRLSAELHELATLPRTETGSGSP-NH2 [Compound 0040] | –
3.8 | 18.5 | H-H[Aib]EGTFTSDVSSYLEEK([AEEA-AEEA-γGlu-C16 diacid])AAREFIAWLVRGRGGGGGEASELSTAALGRLSAELHELATLK([AEEA-AEEA-γGlu-C16 diacid])RTETGSGSP-NH2 [Compound 0397] | –
30.3 | 19.3 | H-H[Aib]EGTFTSDVSSYLEGQAAK([εLys-AEEA-AEEA-γGlu-C18 diacid])EFIAWLVRGRGGGGGGGGGEASELSTAALGRLSAELHELATLPRTETGSGSP-NH2 [Compound 0159] | –
32.6 | 70.9 | H-HGEGTFTSDVSSYLEEQAARK([AEEA-AEEA-γGlu-C18 diacid])FIEWLVRGK([AEEA-AEEA-γGlu-C18 diacid])GEGGEASELSTAALGRLSAELHELATLPRTETGSGSP-NH2 [Compound 0090] | –
3.9 | 78.3 | H-H[Aib]EGTFTSDVSSYLEEQAARK([AEEA-AEEA-γGlu-C16 diacid])FIEWLVRGK([AEEA-AEEA-γGlu-C16 diacid])GEGGEASELSTAALGRLSAELHELATLPRTETGSGSP-NH2 [Compound 0086] | –
14.7 | 59.4 | H-H[Aib]EGTFTSDVSK([γGlu-γGlu-γGlu-γGlu-C16 diacid])YLEEQAARK([γGlu-γGlu-γGlu-γGlu-C16 diacid])FIAWLVRGRGEASELSTAALGRLSAELHELATLPRTETGSGSP-NH2 [Compound 0634] | –
41.7 | 32.8 | H-H[Aib]EGTFTSDVSSYLEEQAAREFIAWLVRGK([AEEA-AEEA-γGlu-C16 diacid])GGGGGEASELSTAALGRLSAELHELATLK([AEEA-AEEA-γGlu-C16 diacid])RTETGSGSP-NH2 [Compound 0284] | –
28.2 | 5.3 | H-H[Aib]EGTFTSDVSSYLEEQAARK([γGlu-γGlu-γGlu-γGlu-C20 diacid])FIAWLVRGRGGGGGEASELSTAALGRLSAELHELATLPRTETGSGSP-NH2 [Compound 0633] | –
– | – | HGEGTFTSDVSSYLEEQAARK([AEEA-AEEA-γGlu-Decanoyl(10-(4-HOOC-PhO))])FIEWLVRGK([AEEA-AEEA-γGlu-Decanoyl(10-(4-HOOC-PhO))])GEGGGGGGGGGEASELSTAALGRLSAELHELATLPRTETGSGSP-NH2 [Compound 0098] | EC50 (human GLP-1 receptor): 7.9 pM; EC50 [1]: 15.6 pM
97.8 | 21 | H-H[Aib]EGTFTSK([AEEA-AEEA-γGlu-Trx-C20 diacid])VSSYLEEQAAREFIEWLVRGRGEASELSTAALGRLSAELHELATLPRTETGSGSP-NH2 [Compound 0417] | –
17 | 9.2 | HWEGTFTSDVSSYLEEQAAREFIAWLVRGRK([AEEA-AEEA-γGlu-C18 diacid])GGGGEASELSTAALGRLSAELHELATLPRTETGSGSP-NH2 [Compound 0648] | –
3.9 | 12.7 | H-H[Aib]EGTFTSDVSSYLEEQAAREFIAWLVRGRK([AEEA-γGlu-C18 diacid])GGGGEASELSTAALGRLSAELHELATLPRTETGSGSP-NH2 [Compound 0660] | –

Molecule | EC50 (human GLP-1 receptor; [2]) [pM] | EC50 [1, 3] [pM] | further results
HWEGTFTSD-K([2-[2-[2-[[2-[2-[2-[[(4S)-4-Carboxy-4-[[4-[(19-Carboxynonadecanoylamino)Methyl]Cyclohexanecarbonyl]Amino]Butanoyl]Amino]Ethoxy]Ethoxy]Acetyl]Amino]Ethoxy]Ethoxy]Acetyl])-SSYLEEQAAREFIEWLVRGRGEASELSTAALGRLSAELHELATLPRTETGSGSP-amide [Compound 0272] | 9.2 | 11.3 | –
